Tests used:
Conditions in all cases: 72 h
HL-60 = test: area under dose-response curve (viability, 1 nM-10 uM) (fraction (0-1)); higher = more sensitive
Procedure, shortened: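 Area under the curve, where listed, was derived from four-parameter log-logistic fits with drc and PharmacoGx. These fits used CellTiter-Glo viability from HL-60 cells in RPMI 1640 with 10% FBS, normalised to DMSO wells and wells holding 10 μM proteasome inhibitor. The full library was rescreened on 384-well plates in duplicate at five tenfold concentrations, 1–10,000 nM, with DMSO or 100 nM of one of three metabolic inhibitors, for 72 h at 37 °C, 5% CO2.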

[1] = tested on: myeloid leukemia patient primary cells Pat.6; test: cell viability (% survival relative to DMSO control); higher = less cytotoxic
Procedure, shortened: (§1)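 Mononuclear cells from patients with AML or CML were thawed, purified on Ficoll and placed in RPMI 1640 with 10% FBS at 10,000 cells/well on 384-well plates. The plates came pre-printed with 70 compounds at five tenfold concentrations spanning 1–10,000 nM, in duplicate, and cells were exposed for 72 h. CellTiter-Glo gave viability, scaled between DMSO wells and wells with 10 μM proteasome inhibitor. Where reported, area under the curve was obtained from log-logistic fits with four parameters using the drc and PharmacoGx R packages.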

[2] = tested on: myeloid leukemia patient primary cells Pat.15; test: as above
Procedure, shortened: as §1

[3] = tested on: myeloid leukemia patient primary cells Pat.1; test: as above
Procedure, shortened: as §1

[4] = tested on: myeloid leukemia patient primary cells Pat.5; test: as above
Procedure, shortened: as §1

[5] = tested on: myeloid leukemia patient primary cells Pat.12; test: as above
Procedure, shortened: as §1

[6] = tested on: myeloid leukemia patient primary cells Pat.10; test: as above
Procedure, shortened: as §1

[7] = tested on: myeloid leukemia patient primary cells Pat.2; test: as above
Procedure, shortened: as §1

[8] = tested on: myeloid leukemia patient primary cells Pat.14; test: as above
Procedure, shortened: as §1

[9] = tested on: myeloid leukemia patient primary cells Pat.13; test: as above
Procedure, shortened: as §1

[10] = tested on: myeloid leukemia patient primary cells Pat.8; test: as above
Procedure, shortened: as §1

[11] = tested on: myeloid leukemia patient primary cells Pat.4; test: as above
Procedure, shortened: as §1

[12] = tested on: myeloid leukemia patient primary cells Pat.7; test: as above
Procedure, shortened: as §1

[13] = tested on: myeloid leukemia patient primary cells Pat.9; test: as above
Procedure, shortened: as §1

[14] = tested on: myeloid leukemia patient primary cells Pat.11; test: as above
Procedure, shortened: as §1

Mono-Mac-6 = test: cell viability (% survival relative to DMSO control, bortezomib = 0%); higher = less cytotoxic
Procedure, shortened: (§2)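 Fifteen myeloid leukaemia cell lines were exposed to compounds at 1, 10, 100, 1000 or 10000 nM in 384-well plates for 72 h at 37 °C and 5% CO2. Viability was read by CellTiter-Glo luminescence and normalised, with vehicle as 100% and a 10 µM positive control as 0%. Values are percent survival averaged over duplicates.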

SHI-1 = test: as above
Procedure, shortened: as §2

HEL = test: as above
Procedure, shortened: as §2

Oc1ccc(Nc2nc(-c3ccc(Cl)cc3)cs2)cc1 [SKI II]
Conditions	area under dose-response curve, co-treatment: AZD3965 100 nM	area under dose-response curve, co-treatment: DMSO vehicle	area under dose-response curve, co-treatment: GSK2194069 100 nM	area under dose-response curve, co-treatment: pictilisib 100 nM	cell viability, 1 nM [%]	cell viability, 10 nM [%]	cell viability, 100 nM [%]	cell viability, 1000 nM [%]	cell viability, 10000 nM [%]
HEL	–	–	–	–	102	109	111	95.5	5.26
HL-60	0.0929	0.0805	0.0628	0.151	–	–	–	–	–
Mono-Mac-6	–	–	–	–	99.2	97.8	100	93.5	14.3
SHI-1	–	–	–	–	94.9	97.8	99.7	96	53.3
[1]	–	–	–	–	75.2	98.7	95.4	93.1	16.2
[2]	–	–	–	–	69.6	93.3	85.9	87.3	33.6
[3]	–	–	–	–	64.1	> 100	> 100	88.9	32.6
[4]	–	–	–	–	34.3	41.7	45.5	25	17
[5]	–	–	–	–	89.9	92.9	95.8	> 100	53.9
[6]	–	–	–	–	49.5	47.7	> 100	9.05	81.9
[7]	–	–	–	–	95.5	95.9	95.1	94.2	53.1
[8]	–	–	–	–	58.3	97.8	69.4	29.1	6.09
[9]	–	–	–	–	77.6	94.2	89.3	92.9	32.9
[10]	–	–	–	–	82.4	80.7	84.5	80	42.6
[11]	–	–	–	–	65.6	94.5	54.5	89.1	25.3
[12]	–	–	–	–	79.7	> 100	62.7	11.5	< 0
[13]	–	–	–	–	20.1	79.9	67.9	24.7	4.42
[14]	–	–	–	–	89.5	97.2	98.4	92	79.3

CC[C@@]1(O)C(=O)OCc2c1cc1n(c2=O)Cc2cc3c(CN(C)C)c(O)ccc3nc2-1 [Topotecan]
Conditions	area under dose-response curve, co-treatment: AZD3965 100 nM	area under dose-response curve, co-treatment: DMSO vehicle	area under dose-response curve, co-treatment: GSK2194069 100 nM	area under dose-response curve, co-treatment: pictilisib 100 nM	cell viability, 1 nM [%]	cell viability, 10 nM [%]	cell viability, 100 nM [%]	cell viability, 1000 nM [%]	cell viability, 10000 nM [%]
HEL	–	–	–	–	94.8	103	0.201	0.373	0.268
HL-60	0.608	0.585	0.58	0.597	–	–	–	–	–
Mono-Mac-6	–	–	–	–	87.3	98	2.7	0.495	0.236
SHI-1	–	–	–	–	97.1	85.8	0.99	-0.151	0.783
[1]	–	–	–	–	> 100	97.4	94.6	75.1	32.5
[2]	–	–	–	–	95.4	89.4	83.5	54.8	0.856
[3]	–	–	–	–	83.6	80.9	98.6	96	28.6
[4]	–	–	–	–	91.7	66.1	53.1	19.8	0.265
[5]	–	–	–	–	95.3	97	92.1	93.5	48.3
[6]	–	–	–	–	84.6	88.3	35.4	6.65	1.3
[7]	–	–	–	–	90.7	92.9	95.9	72	39.5
[8]	–	–	–	–	96	97	72.4	58.2	6.19
[9]	–	–	–	–	85.7	91.7	92.3	97.4	21.9
[10]	–	–	–	–	76.3	69.7	93.5	87.2	27.3
[11]	–	–	–	–	75.3	84.2	> 100	82.5	4.14
[12]	–	–	–	–	80.1	94.3	81.4	34.7	< 0
[13]	–	–	–	–	78.4	58.3	31.8	58.8	1.24
[14]	–	–	–	–	99.8	97.2	92.4	76.2	53.3

CCC(=O)N1CCN(c2ccc(-n3c(=O)ccc4cnc5ccc(-c6cnc7ccccc7c6)cc5c43)cc2C(F)(F)F)CC1 [Torin1]
Conditions	area under dose-response curve, co-treatment: AZD3965 100 nM	area under dose-response curve, co-treatment: DMSO vehicle	area under dose-response curve, co-treatment: GSK2194069 100 nM	cell viability, 1 nM [%]	cell viability, 10 nM [%]	cell viability, 100 nM [%]	cell viability, 1000 nM [%]	cell viability, 10000 nM [%]
HEL	–	–	–	109	105	99.3	36.4	14.7
HL-60	0.0362	< 0.0301	< 0.0301	–	–	–	–	–
Mono-Mac-6	–	–	–	92.2	85.5	75.8	35.7	21.7
SHI-1	–	–	–	89.8	92	80.2	48.9	69.4
[1]	–	–	–	97.8	89.3	94.1	62.6	62.9
[2]	–	–	–	80.6	55.9	20.2	14.2	12.1
[3]	–	–	–	85.1	60.4	44.2	30.2	21.5
[4]	–	–	–	54.5	13.5	53.9	1.18	0.265
[5]	–	–	–	90.6	91.5	92.3	91.5	89.5
[6]	–	–	–	63.9	96.5	30	18.6	9.9
[7]	–	–	–	92.5	94.3	74.2	62.8	64.2
[8]	–	–	–	77.2	82.1	74.3	38.1	54.1
[9]	–	–	–	91.5	77.7	75.2	43	51
[10]	–	–	–	91.1	66.9	73.1	61.7	53.7
[11]	–	–	–	91.6	76	59.8	40.2	12.8
[12]	–	–	–	75.7	74.2	88.2	44.8	37.6
[13]	–	–	–	80.9	57.7	62	27	12.3
[14]	–	–	–	92.9	90.9	85.8	56.7	39.4

Source: the supplement of paper PMC8671470
